Results on one compound are retold here after patent US4304861A, “Process of producing antibiotic SM-173B with Streptomyces chromofuscus” (Hoffmann-La Roche Inc., priority 1977, dated 1981).

In general, MIC refers to the smallest concentration in the dilution series that meets the test's criterion for growth inhibition. Low readings indicate greater potency, high ones weaker potency. A word on the LD50: it is the dose at which mortality reaches 50%.

Each structure is given as a SMILES string. ≈ marks a conversion by molar mass, not a printed value.

One data set relates to Aspergillus niger. Put plainly: Minimum Inhibitory Concentration (MIC), antibacterial spectrum. The class given is cell-based. From the text:
(§1) The antibacterial spectrum is evident from the following Table:
(§2) Minimum Inhibitory Concentration (MIC)
(§3) Test organism MIC (μg/ml)

In the next data set the test system is Bacillus cereus. The description is as above. The class given is cell-based.
Description: as §1, §2, §3

The next data set relates to Bacillus subtilis. Described as above. The class given is cell-based.
Description: as §1, §2, §3

Another data set relates to Echerichia coli. The description is as above. The class given is cell-based.
Description: as §1, §2, §3

A further data set deals with Micrococcus flavus. The description is as above. The class given is cell-based.
Description: as §1, §2, §3

For another data set, the system named is Mycobacterium avium. The description is as above. The class given is cell-based.
Description: as §1, §2, §3

Data set [1] deals with Mycobacterium rhodochrous. Described as above. The class given is cell-based.
Description: as §1, §2, §3

The next data set has as its system Mycobacterium smegmatis. The data set is described as above. The class given is cell-based. The note with it: Mycolicibacterium smegmatis.
Description: as §1, §2, §3

Another data set relates to Penicillium citrinum. The description is as above. The class given is cell-based.
Description: as §1, §2, §3

The test system of the next data set is Sarcina lutea. Described as above. The class given is cell-based. Conditions: Micrococcus luteus.
Description: as §1, §2, §3

The test system of data set [2] is Staphylococcus aureus 209P. The data set is described as above. The class given is cell-based.
Description: as §1, §2, §3

Data set [3] relates to Staphylococcus epidermidis. Described as above. The class given is cell-based.
Description: as §1, §2, §3

Data set [4] can be described thus: Toxicity, intraperitoneal administration to mice. The note with it: mouse, in vivo, ip. The procedure:
The LD50 is greater than 200 mg/kg in the case of intraperitoneal administration to mice.

A further data set can be described thus: Solubility. The class given is physicochemical.
Data set [5] in a line: Acidity (physico-chemical properties). The class given is physicochemical.
The subject of a further data set is gram-positive bacteria. Description: Antibiotic activity (summary of MIC table). The note with it: a large number of gram-positive bacteria. The class given is cell-based.
Description: as §1, §2, §3

In another data set the test system is mycobacteria. Put plainly: Antibiotic activity (summary of MIC table). The class given is cell-based.
Description: as §1, §2, §3

Turning to `COC1Cc2c(cc3c(c2O)C(=O)c2c(O)cccc2C3=O)C(=O)C1(C)O` (stereo not drawn) [Antibiotic SM-173B], the MIC against Aspergillus niger is 100 µg/mL (≈ 271 µM); in the data set with Bacillus cereus it was 6.26 µg/mL (≈ 17 µM); in the data set on Bacillus subtilis, 6.25 µg/mL (≈ 17 µM); against Echerichia coli, 100 µg/mL (≈ 271 µM); in the data set with Micrococcus flavus, 6.25 µg/mL (≈ 17 µM); against Mycobacterium avium it was 6.25 µg/mL (≈ 17 µM). In addition, the MIC in [1] stood at 3.13 µg/mL (≈ 8.5 µM); with Mycobacterium smegmatis, 3.13 µg/mL (≈ 8.5 µM); with Penicillium citrinum it was 100 µg/mL (≈ 271 µM); in the data set with Sarcina lutea it was 12.5 µg/mL (≈ 33.9 µM); in [2], 6.25 µg/mL (≈ 17 µM); in data set [3], 3.13 µg/mL (≈ 8.5 µM). Besides, in data set [4], the LD50 was > 200 mg/kg. Besides, the Solubility result in “Solubility” (in methanol, ethanol, butanol, acetone, chloroform, ethyl acetate) is “Soluble”; in the data set “Solubility” (in n-hexane), “poorly soluble”; in “Solubility” (in petroleum ether) it was “insoluble”; in “Solubility” (in water), “insoluble”; in the data set “Solubility” (in water under alkaline conditions), “Soluble”. The acidity entry in data set [5] is “weakly acid”. Further, the antibiotic activity entry in the data set with gram-positive bacteria and in the data set on mycobacteria was “antibiotically active” in each case.
